Results taken from the NIST ThermoML archive (doi:10.1021/je200721d).
Numbers after ± are expanded uncertainties.

Assay: xn = mol fraction of the nth substance listed
Conditions: Liquid, Vibrating tube method

For CCCCCCCC [octane] + CCCCCC, the mass density (362.88 K, 4000 kPa, x2 = 0.1654) was 644.35 ± 0.29 kg/m3, the mass density (362.88 K, 4000 kPa, x2 = 0.2199) was 642.17 ± 0.3 kg/m3 and the mass density (362.88 K, 5000 kPa, x2 = 0.1654) was 645.69 ± 0.3 kg/m3. For the same compound, the mass density (362.88 K, 5000 kPa, x2 = 0.2199) was 643.54 ± 0.3 kg/m3, the mass density (362.88 K, 6000 kPa, x2 = 0.1654) was 647.04 ± 0.31 kg/m3 and the mass density (362.88 K, 6000 kPa, x2 = 0.2199) was 644.88 ± 0.31 kg/m3. The mass density (362.88 K, 7000 kPa, x2 = 0.1654) was 648.35 ± 0.32 kg/m3, the mass density (362.88 K, 7000 kPa, x2 = 0.2199) was 646.21 ± 0.32 kg/m3 and the mass density (362.88 K, 8000 kPa, x2 = 0.1654) was 649.64 ± 0.33 kg/m3. The mass density (362.88 K, 8000 kPa, x2 = 0.2199) was 647.53 ± 0.33 kg/m3, the mass density (362.88 K, 9000 kPa, x2 = 0.1654) was 650.92 ± 0.34 kg/m3 and the mass density (362.88 K, 9000 kPa, x2 = 0.2199) was 648.82 ± 0.34 kg/m3. For the same compound, the mass density (362.88 K, 10000 kPa, x2 = 0.1654) was 652.16 ± 0.35 kg/m3, the mass density (362.88 K, 10000 kPa, x2 = 0.2199) was 650.09 ± 0.35 kg/m3 and the mass density (362.88 K, 11000 kPa, x2 = 0.1654) was 653.43 ± 0.36 kg/m3. It also gave a mass density (362.88 K, 11000 kPa, x2 = 0.2199) of 651.35 ± 0.36 kg/m3, a mass density (362.88 K, 12000 kPa, x2 = 0.1654) of 654.65 ± 0.37 kg/m3 and a mass density (362.88 K, 12000 kPa, x2 = 0.2199) of 652.59 ± 0.37 kg/m3. The mass density (362.88 K, 13000 kPa, x2 = 0.1654) was 655.84 ± 0.38 kg/m3, the mass density (362.88 K, 13000 kPa, x2 = 0.2199) was 653.81 ± 0.38 kg/m3 and the mass density (362.88 K, 14000 kPa, x2 = 0.1654) was 657.01 ± 0.39 kg/m3. The mass density (362.88 K, 14000 kPa, x2 = 0.2199) was 654.99 ± 0.39 kg/m3, the mass density (362.88 K, 15000 kPa, x2 = 0.1654) was 658.17 ± 0.4 kg/m3 and the mass density (362.88 K, 15000 kPa, x2 = 0.2199) was 656.16 ± 0.4 kg/m3. The mass density (362.88 K, 16000 kPa, x2 = 0.1654) was 659.3 ± 0.4 kg/m3, the mass density (362.88 K, 16000 kPa, x2 = 0.2199) was 657.29 ± 0.41 kg/m3 and the mass density (362.88 K, 17000 kPa, x2 = 0.1654) was 660.41 ± 0.41 kg/m3. The mass density (362.88 K, 17000 kPa, x2 = 0.2199) was 658.42 ± 0.42 kg/m3, the mass density (362.88 K, 18000 kPa, x2 = 0.1654) was 661.5 ± 0.42 kg/m3 and the mass density (362.88 K, 18000 kPa, x2 = 0.2199) was 659.52 ± 0.43 kg/m3. The mass density (362.88 K, 19000 kPa, x2 = 0.1654) was 662.58 ± 0.43 kg/m3, the mass density (362.88 K, 19000 kPa, x2 = 0.2199) was 660.6 ± 0.44 kg/m3 and the mass density (362.88 K, 20000 kPa, x2 = 0.1654) was 663.6 ± 0.44 kg/m3. For the same compound, the mass density (362.88 K, 20000 kPa, x2 = 0.2199) was 661.65 ± 0.45 kg/m3, the mass density (362.88 K, 21000 kPa, x2 = 0.1654) was 664.63 ± 0.45 kg/m3 and the mass density (362.88 K, 21000 kPa, x2 = 0.2199) was 662.67 ± 0.46 kg/m3. For the same compound, the mass density (362.88 K, 22000 kPa, x2 = 0.1654) was 665.63 ± 0.46 kg/m3, the mass density (362.88 K, 22000 kPa, x2 = 0.2199) was 663.67 ± 0.46 kg/m3 and the mass density (362.88 K, 23000 kPa, x2 = 0.1654) was 666.61 ± 0.47 kg/m3. It also gave a mass density (362.88 K, 23000 kPa, x2 = 0.2199) of 664.66 ± 0.47 kg/m3, a mass density (362.88 K, 24000 kPa, x2 = 0.1654) of 667.57 ± 0.48 kg/m3 and a mass density (362.88 K, 24000 kPa, x2 = 0.2199) of 665.61 ± 0.48 kg/m3. For the same compound, the mass density (362.88 K, 25000 kPa, x2 = 0.1654) was 668.52 ± 0.49 kg/m3, the mass density (362.88 K, 25000 kPa, x2 = 0.2199) was 666.56 ± 0.49 kg/m3 and the mass density (362.89 K, 1000 kPa, x2 = 0.9308) was 599.76 ± 0.29 kg/m3. For the same compound, the mass density (362.89 K, 2000 kPa, x2 = 0.9308) was 601.55 ± 0.3 kg/m3, the mass density (362.89 K, 3000 kPa, x2 = 0.9308) was 603.31 ± 0.31 kg/m3 and the mass density (362.89 K, 4000 kPa, x2 = 0.9308) was 605.04 ± 0.32 kg/m3. For the same compound, the mass density (362.89 K, 5000 kPa, x2 = 0.9308) was 606.72 ± 0.33 kg/m3, the mass density (362.89 K, 6000 kPa, x2 = 0.9308) was 608.38 ± 0.34 kg/m3 and the mass density (362.89 K, 7000 kPa, x2 = 0.9308) was 610.01 ± 0.35 kg/m3. For the same compound, the mass density (362.89 K, 8000 kPa, x2 = 0.9308) was 611.58 ± 0.36 kg/m3, the mass density (362.89 K, 9000 kPa, x2 = 0.9308) was 613.16 ± 0.37 kg/m3 and the mass density (362.89 K, 10000 kPa, x2 = 0.9308) was 614.68 ± 0.38 kg/m3. The mass density (362.89 K, 11000 kPa, x2 = 0.9308) was 616.17 ± 0.39 kg/m3, the mass density (362.89 K, 12000 kPa, x2 = 0.9308) was 617.64 ± 0.4 kg/m3 and the mass density (362.89 K, 13000 kPa, x2 = 0.9308) was 619.07 ± 0.41 kg/m3. The mass density (362.89 K, 14000 kPa, x2 = 0.9308) was 620.48 ± 0.42 kg/m3, the mass density (362.89 K, 15000 kPa, x2 = 0.9308) was 621.85 ± 0.43 kg/m3 and the mass density (362.89 K, 16000 kPa, x2 = 0.9308) was 623.2 ± 0.44 kg/m3. The mass density (362.89 K, 17000 kPa, x2 = 0.9308) was 624.51 ± 0.45 kg/m3, the mass density (362.89 K, 18000 kPa, x2 = 0.9308) was 625.8 ± 0.46 kg/m3 and the mass density (362.89 K, 19000 kPa, x2 = 0.9308) was 627.06 ± 0.47 kg/m3. For the same compound, the mass density (362.89 K, 20000 kPa, x2 = 0.9308) was 628.28 ± 0.48 kg/m3, the mass density (362.89 K, 21000 kPa, x2 = 0.9308) was 629.48 ± 0.5 kg/m3 and the mass density (362.89 K, 22000 kPa, x2 = 0.9308) was 630.64 ± 0.51 kg/m3. The mass density (362.89 K, 23000 kPa, x2 = 0.9308) was 631.79 ± 0.52 kg/m3, the mass density (362.89 K, 24000 kPa, x2 = 0.9308) was 632.9 ± 0.53 kg/m3 and the mass density (362.89 K, 25000 kPa, x2 = 0.9308) was 634.01 ± 0.55 kg/m3. For the same compound, the mass density (362.9 K, 1000 kPa, x2 = 0.7995) was 608.76 ± 0.28 kg/m3, the mass density (362.9 K, 2000 kPa, x2 = 0.7995) was 610.47 ± 0.29 kg/m3 and the mass density (362.9 K, 3000 kPa, x2 = 0.7995) was 612.13 ± 0.3 kg/m3. For the same compound, the mass density (362.9 K, 4000 kPa, x2 = 0.7995) was 613.77 ± 0.31 kg/m3, the mass density (362.9 K, 5000 kPa, x2 = 0.7995) was 615.41 ± 0.32 kg/m3 and the mass density (362.9 K, 6000 kPa, x2 = 0.7995) was 616.94 ± 0.33 kg/m3. For the same compound, the mass density (362.9 K, 7000 kPa, x2 = 0.7995) was 618.5 ± 0.34 kg/m3, the mass density (362.9 K, 8000 kPa, x2 = 0.7995) was 620.01 ± 0.35 kg/m3 and the mass density (362.9 K, 9000 kPa, x2 = 0.7995) was 621.5 ± 0.36 kg/m3. It also gave a mass density (362.9 K, 10000 kPa, x2 = 0.7995) of 622.96 ± 0.37 kg/m3, a mass density (362.9 K, 11000 kPa, x2 = 0.7995) of 624.39 ± 0.38 kg/m3 and a mass density (362.9 K, 12000 kPa, x2 = 0.7995) of 625.81 ± 0.39 kg/m3. The mass density (362.9 K, 13000 kPa, x2 = 0.7995) was 627.18 ± 0.4 kg/m3, the mass density (362.9 K, 14000 kPa, x2 = 0.7995) was 628.53 ± 0.41 kg/m3 and the mass density (362.9 K, 15000 kPa, x2 = 0.7995) was 629.85 ± 0.42 kg/m3. For the same compound, the mass density (362.9 K, 16000 kPa, x2 = 0.7995) was 631.14 ± 0.43 kg/m3, the mass density (362.9 K, 17000 kPa, x2 = 0.7995) was 632.42 ± 0.44 kg/m3 and the mass density (362.9 K, 18000 kPa, x2 = 0.7995) was 633.67 ± 0.45 kg/m3. The mass density (362.9 K, 19000 kPa, x2 = 0.7995) was 634.88 ± 0.46 kg/m3, the mass density (362.9 K, 20000 kPa, x2 = 0.7995) was 636.08 ± 0.48 kg/m3 and the mass density (362.9 K, 21000 kPa, x2 = 0.7995) was 637.22 ± 0.49 kg/m3. The mass density (362.9 K, 22000 kPa, x2 = 0.7995) was 638.34 ± 0.5 kg/m3, the mass density (362.9 K, 23000 kPa, x2 = 0.7995) was 639.44 ± 0.51 kg/m3 and the mass density (362.9 K, 24000 kPa, x2 = 0.7995) was 640.51 ± 0.52 kg/m3. It also gave a mass density (362.9 K, 25000 kPa, x2 = 0.7995) of 641.57 ± 0.54 kg/m3.
